Here are results for 21 compounds from US20250049817A1, “JAK INHIBITOR WITH A VITAMIN D ANALOG FOR TREATMENT OF SKIN DISEASES” (INCYTE CORPORATION, priority 2020, published 2025).

Usually IC50 stands for the concentration at which inhibition is half-maximal. A higher IC50 goes with a need for much substance.

SMILES strings stand for the structures. Some results are limits rather than exact numbers.

The target in test [1] is human JAK1 (a.a. 837-1142) (Homo sapiens, UniProt P23458). Description: In vitro JAK kinase assay (HTRF), JAK1. In kind it is biochemical. Particulars: 1 mM ATP. (In general: Time-resolved FRET reads energy transfer from a long-lived donor to a nearby acceptor.)
Test [2] deals with human JAK1 (a.a. 837-1142). Description: In vitro JAK kinase assay (HTRF), JAK1. Format: biochemical. To be noted: JAK2/JAK1 IC50 ratio, 1 mM ATP.

For `N#CCC(C1CCN(c2cccc(Cl)n2)C1)n1cc(-c2ncnc3[nH]ccc23)cn1` (single isomer, unassigned) [Compound 6, 3-[1-(6-chloropyridin-2-yl)pyrrolidin-3-yl]-3-[4-(7H-pyrrolo[2,3-d]pyrimidin-4-yl)-1H-pyrazol-1-yl]propanenitrile], in test [1], the IC50 was below 10 nM. In addition, the JAK2/JAK1 in test [2] is above 10.
Taken in the same sequence, the figures for `N#CCC1(n2cc(-c3ncnc4[nH]ccc34)cn2)CN(C2CCN(C(=O)c3ccnc(C(F)(F)F)c3F)CC2)C1` [Compound 1, {1-{1-[3-Fluoro-2-(trifluoromethyl)isonicotinoyl]piperidin-4-yl}-3-[4-(7H-pyrrolo [2,3-d]pyrimidin-4-yl)-1H-pyrazol-1-yl]azetidin-3-yl}acetonitrile] were below 10 nM and above 10.
Taken in the same sequence, the figures for `N#CCC1(n2cc(-c3ncnc4[nH]ccc34)cn2)CN(C2CCN(C(=O)Nc3ccc(F)cc3C(F)(F)F)CC2)C1` [Compound 2, 4-{3-(Cyanomethyl)-3-[4-(7H-pyrrolo[2,3-d]pyrimidin-4-yl)-1H-pyrazol-1-yl]azetidin-1-yl}-N-[4-fluoro-2-(trifluoromethyl)phenyl] piperidine-1-carboxamide] were below 10 nM and above 10.
`N#CCC1(n2cc(-c3ncnc4[nH]ccc34)cn2)CN(C2CCN(C(=O)c3ccnc(C(F)(F)F)n3)CC2)C1` [Compound 3, [3-[4-(7H-pyrrolo[2,3-d]pyrimidin-4-yl)-1H-pyrazol-1-yl]-1-(1-{[2-(trifluoromethyl)pyrimidin-4-yl]carbonyl}piperidin-4-yl)azetidin-3-yl]acetonitrile]: the IC50 in test [1] is below 10 nM. In addition, the JAK2/JAK1 in test [2] is on record as above 10.
Taken in the same sequence, the figures for `C[C@@H](O)c1nc2cnc3ccsc3c2n1[C@H]1CC[C@H](CC#N)OC1` [Compound 5, ((2R,5S)-5-{2-[(1R)-1-hydroxyethyl]-1H-imidazo[4,5-d]thieno[3,2-b]pyridin-1-yl}tetrahydro-2H-pyran-2-yl)acetonitrile] were below 100 nM and above 10.
In test [1], `N#CCC(C1CCN(c2nc3cccnc3o2)C1)n1cc(-c2ncnc3[nH]ccc23)cn1` (stereo not drawn) [Compound 7, 3-(1-[1,3]oxazolo[5,4-b]pyridin-2-ylpyrrolidin-3-yl)-3-[4-(7H-pyrrolo[2,3-d]pyrimidin-4-yl)-1H-pyrazol-1-yl]propanenitrile] displayed a half-maximal inhibitory concentration (IC50) below 10 nM. Also, in test [2], the JAK2/JAK1 is listed as above 10.
Turning to `N#CCC(CN1CCN(C(=O)c2ccc(C#N)cc2F)CC1)n1cc(-c2ncnc3[nH]ccc23)cn1` (stereo not drawn) [Compound 8, 4-[(4-{3-cyano-2-[4-(7H-pyrrolo[2,3-d]pyrimidin-4-yl)-1H-pyrazol-1-yl]propyl}piperazin-1-yl)carbonyl]-3-fluorobenzonitrile], the IC50 in test [1] was below 10 nM. The JAK2/JAK1 in test [2] is listed as above 10.
Taken in the same sequence, the figures for `N#CCC(CN1CCN(C(=O)c2ccc(C#N)cc2F)CC1)n1ccc(-c2ncnc3[nH]ccc23)c1` (stereo not drawn) [Compound 9, 4-[(4-{3-cyano-2-[3-(7H-pyrrolo[2,3-d]pyrimidin-4-yl)-1H-pyrrol-1-yl]propyl}piperazin-1-yl)carbonyl]-3-fluorobenzonitrile] were below 10 nM and above 10.
Taken in the same sequence, the figures for `N#CC[C@]1(n2cc(-c3ncnc4[nH]ccc34)cn2)C[C@H](N2CCN(C(=O)c3ccnc(C(F)(F)F)n3)CC2)C1` [Compound 10, [trans-1-[4-(7H-pyrrolo[2,3-d]pyrimidin-4-yl)-1H-pyrazol-1-yl]-3-(4-{[2-(trifluoromethyl)pyrimidin-4-yl]carbonyl}piperazin-1-yl)cyclobutyl]acetonitrile] were below 10 nM and above 10.
For `N#CC[C@]1(n2cc(-c3ncnc4[nH]ccc34)cn2)C[C@H](N2CCC(Oc3cc(CN4CC(O)C4)cc(C(F)(F)F)n3)CC2)C1` [Compound 11, {trans-3-(4-{[4-[(3-hydroxyazetidin-1-yl)methyl]-6-(trifluoromethyl)pyridin-2-yl]oxy}piperidin-1-yl)-1-[4-(7H-pyrrolo[2,3-d]pyrimidin-4-yl)-1H-pyrazo1-1-yl]cyclobutyl}acetonitrile], in that order: below 10 nM and above 10.
As to `N#CC[C@]1(n2cc(-c3ncnc4[nH]ccc34)cn2)C[C@H](N2CCC(Oc3cc(CN4CCC[C@H]4CO)cc(C(F)(F)F)n3)CC2)C1` [Compound 12, {trans-3-(4-{[4-{[(2S)-2-(hydroxymethyl)pyrrolidin-1-yl]methyl}-6-(trifluoromethyl)pyridin-2-yl]oxy}piperidin-1-yl)-1-[4-(7H-pyrrolo[2,3-d]pyrimidin-4-yl)-1H-pyrazol-1-yl]cyclobutyl}acetonitrile], the half-inhibitory concentration (IC50) in test [1] is below 10 nM. For the same compound, the JAK2/JAK1 in test [2] is above 10.
Taken in the same sequence, the figures for `N#CC[C@]1(n2cc(-c3ncnc4[nH]ccc34)cn2)C[C@H](N2CCC(Oc3cc(CN4CCC[C@@H]4CO)cc(C(F)(F)F)n3)CC2)C1` [Compound 13, {trans-3-(4-{[4-{[(2R)-2-(hydroxymethyl)pyrrolidin-1-yl]methyl}-6-(trifluoromethyl)pyridin-2-yl]oxy}piperidin-1-yl)-1-[4-(7H-pyrrolo[2,3-d]pyrimidin-4-yl)-1H-pyrazol-1-yl]cyclobutyl}acetonitrile] were below 10 nM and above 10.
For `C[C@H](NC(=O)c1cc(F)c(N2CC(CC#N)(n3cc(-c4ncnc5[nH]ccc45)cn3)C2)cc1F)C(F)(F)F` [Compound 16, 4-{3-(cyanomethyl)-3-[4-(7H-pyrrolo[2,3-d]pyrimidin-4-yl)-1H-pyrazol-1-yl]azetidin-1-yl]-2,5-difluoro-N-[(1S)-2,2,2-trifluoro-1-methylethyl]benzamide], in that order: below 10 nM and above 10.
For the compound `N#CCC1(n2cc(-c3ncnc4[nH]ccc34)cn2)CN([C@H]2CC[C@@H](Oc3cc(CCO)nc(C(F)(F)F)n3)CC2)C1` [Compound 18, {1-(cis-4-{[6-(2-hydroxyethyl)-2-(trifluoromethyl)pyrimidin-4-yl]oxy}cyclohexyl)-3-[4-(7H-pyrrolo[2,3-d]pyrimidin-4-yl)-1H-pyrazol-1-yl]azetidin-3-yl}acetonitrile], the IC50 in test [1] is below 10 nM. For the same compound, the JAK2/JAK1 in test [2] is recorded as above 10.
Taken in the same sequence, the figures for `CCNCc1cc(O[C@H]2CC[C@@H](N3CC(CC#N)(n4cc(-c5ncnc6[nH]ccc56)cn4)C3)CC2)nc(C(F)(F)F)c1` [Compound 19, {1-(cis-4-{[4-[(ethylamino)methyl]-6-(trifluoromethyl)pyridin-2-yl]oxy}cyclohexyl)-3-[4-(7H-pyrrolo[2,3-d]pyrimidin-4-yl)-1H-pyrazol-1-yl]azetidin-3-yl}acetonitrile] were below 10 nM and above 10.
For `CC(C)(O)c1cc(O[C@H]2CC[C@@H](N3CC(CC#N)(n4cc(-c5ncnc6[nH]ccc56)cn4)C3)CC2)nc(C(F)(F)F)c1` [Compound 20, {1-(cis-4-{[4-(1-hydroxy-1-methylethyl)-6-(trifluoromethyl)pyridin-2-yl]oxy]cyclohexyl)-3-[4-(7H-pyrrolo[2,3-d]pyrimidin-4-yl)-1H-pyrazol-1-yl]azetidin-3-yl}acetonitrile], in that order: below 10 nM and above 10.
In test [1], `N#CCC1(n2cc(-c3ncnc4[nH]ccc34)cn2)CN([C@H]2CC[C@@H](Oc3cc(CN4CC[C@@H](O)C4)cc(C(F)(F)F)n3)CC2)C1` [Compound 21, {1-(cis-4-{[4-{[(3R)-3-hydroxypyrrolidin-1-yl]methyl}-6-(trifluoromethyl)pyridin-2-yl]oxy}cyclohexyl)-3-[4-(7H-pyrrolo[2,3-d]pyrimidin-4-yl)-1H-pyrazol-1-yl]azetidin-3-yl}acetonitrile] displayed an IC50 below 10 nM. In test [2], the JAK2/JAK1 is listed as above 10.
For `N#CCC1(n2cc(-c3ncnc4[nH]ccc34)cn2)CN([C@H]2CC[C@@H](Oc3cc(CN4CC[C@H](O)C4)cc(C(F)(F)F)n3)CC2)C1` [Compound 22, {1-(cis-4-{[4-{[(3S)-3-hydroxypyrrolidin-1-yl]methyl}-6-(trifluoromethyl)pyridin-2-yl]oxy}cyclohexyl)-3-[4-(7H-pyrrolo[2,3-d]pyrimidin-4-yl)-1H-pyrazol-1-yl]azetidin-3-yl}acetonitrile], in that order: below 10 nM and above 10.
`C[C@@H](CO)NCc1cc(OC2CCN([C@H]3C[C@](CC#N)(n4cc(-c5ncnc6[nH]ccc56)cn4)C3)CC2)nc(C(F)(F)F)c1` [Compound 23, {trans-3-(4-{[4-({[(1S)-2-hydroxy-1-methylethyl]amino}methyl)-6-(trifluoromethyl)pyridin-2-yl]oxy}piperidin-1-yl)-1-[4-(7H-pyrrolo[2,3-d]pyrimidin-4-yl)-1H-pyrazol-1-yl]cyclobutyl}acetonitrile] yielded an IC50 in test [1] below 10 nM. The JAK2/JAK1 in test [2] is on record as above 10.
For `C[C@@H](O)CNCc1cc(OC2CCN([C@H]3C[C@](CC#N)(n4cc(-c5ncnc6[nH]ccc56)cn4)C3)CC2)nc(C(F)(F)F)c1` [Compound 24, {trans-3-(4-{[4-({[(2R)-2-hydroxypropyl]amino}methyl)-6-(trifluoromethyl)pyridin-2-yl]oxy}piperidin-1-yl)-1-[4-(7H-pyrrolo[2,3-d]pyrimidin-4-yl)-1H-pyrazol-1-yl]cyclobutyl]acetonitrile], in that order: below 10 nM and above 10.
Taken in the same sequence, the figures for `C[C@H](O)CNCc1cc(OC2CCN([C@H]3C[C@](CC#N)(n4cc(-c5ncnc6[nH]ccc56)cn4)C3)CC2)nc(C(F)(F)F)c1` [Compound 25, {trans-3-(4-{[4-({[(2S)-2-hydroxypropyl]amino}methyl)-6-(trifluoromethyl)pyridin-2-yl]oxy}piperidin-1-yl)-1-[4-(7H-pyrrolo[2,3-d]pyrimidin-4-yl)-1H-pyrazol-1-yl]cyclobutyl}acetonitrile] were below 10 nM and above 10.
